Consider 13 compounds from patent US10407409B2, “6-(5-hydroxy-1H-pyrazol-1-yl)nicotinamide inhibitors of PHD” (Takeda Pharmaceutical Company Limited, priority 2013, dated 2019).

The subject of test [1] is HIF1a protein in H9c2 rat cardiomyocytes. The test is described as follows: Cell-based HIF-alpha stabilization assay (inhibition of PHD in cells). The settings on record: Rattus norvegicus, H9c2, 24 h, 24 hrs compound incubation, HIF1a protein by ELISA, read-out: Inhibition of PHD in cells (pEC50) (converted). In short, it runs like this:
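Rat H9c2 cardiomyocytes, cultured 24 h, were treated 24 h with an 11-point serial dilution of compound. HIF1a in whole-cell lysates was quantified by ELISA as % of the maximal desferrioxamine response. EC50 came from curve fitting; EC50pos is the concentration reaching 50% of the desferrioxamine maximum.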
A general note: In an ELISA, binding on a coated surface is turned into a signal by an enzyme label.

Test [2] concerns the target PHD2 enzyme (residues 181-417) (Homo sapiens (Human), UniProt Q9GZT9). The test is described as follows: Inhibition of PHD enzyme (LC/MS peptide hydroxylation assay). The class given is biochemical. The following applies: PHD2 (residues 181-417) 5 nM, 60 min pre-incubation; -log(IC50), IC50 molar. In short, it runs like this:
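PHD2 (5 nM final) preincubated with inhibitor 60 min at RT in 50 mM HEPES, 50 mM KCl, 0.5 mM TCEP, 2 uM FeCl2, 0.1 mg/ml BSA, pH 7.3. Reaction started with biotin-peptide (1 uM), 2-oxoglutarate (2 uM), ascorbate (1 mM), quenched at 60 min; hydroxylated product by LC/MS, reported as pIC50.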

Chain of PHD2 enzyme (residues 181-417) (Q9GZT9 181-417): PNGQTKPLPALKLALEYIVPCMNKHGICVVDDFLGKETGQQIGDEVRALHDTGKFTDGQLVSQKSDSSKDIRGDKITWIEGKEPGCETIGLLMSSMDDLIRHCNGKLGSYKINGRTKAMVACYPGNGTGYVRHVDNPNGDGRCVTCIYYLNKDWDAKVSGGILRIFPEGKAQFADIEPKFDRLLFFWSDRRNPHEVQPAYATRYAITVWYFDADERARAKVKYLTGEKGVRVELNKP

As to `COCC1(CNC(=O)c2ccc(-n3ncc(-c4ccc(C#N)cc4)c3O)nc2)CCCC1` [Example 147, 6-(4-(4-cyanophenyl)-5-hydroxy-1H-pyrazol-1-yl)-N-((1-(methoxymethyl)cyclopentyl)methyl)nicotinamide], the EC50 in test [1] is 3240 nM. The “PHD Inhibition (pIC50)” value in test [2] is 7.9.
Turning to `COCCCNC(=O)c1ccc(-n2ncc(-c3ccc(C#N)cc3)c2O)nc1` [Example 148, 6-(4-(4-cyanophenyl)-5-hydroxy-1H-pyrazol-1-yl)-N-(3-methoxypropyl)nicotinamide], in test [1], the EC50 is 631 nM. In addition, the “PHD Inhibition (pIC50)” value in test [2] turned out to be 7.57.
Taken in the same sequence, the figures for `COCC1(NC(=O)c2ccc(-n3ncc(-c4ccc(C#N)cc4)c3O)nc2)CCCC1` [Example 149, 6-(4-(4-cyanophenyl)-5-hydroxy-1H-pyrazol-1-yl)-N-(1-(methoxymethyl)cyclopentyl)nicotinamide] were 776 nM and 7.28.
For the compound `CNC(=O)c1ccc(-n2ncc(-c3ccc(C#N)cc3)c2O)nc1` [Example 150, 6-(4-(4-cyanophenyl)-5-hydroxy-1H-pyrazol-1-yl)-N-methylnicotinamide], the EC50 in test [1] was 2510 nM. In addition, the “PHD Inhibition (pIC50)” value in test [2] was 7.58.
Taken in the same sequence, the figures for `N#Cc1ccc(-c2cnn(-c3ccc(C(=O)NC4CCCC4)cn3)c2O)cc1` [Example 151, 6-(4-(4-cyanophenyl)-5-hydroxy-1H-pyrazol-1-yl)-N-cyclopentylnicotinamide] were 3630 nM and 7.12.
The corresponding values for `COCCNC(=O)c1ccc(-n2ncc(-c3ccc(C#N)cc3)c2O)nc1` [Example 152, 6-(4-(4-cyanophenyl)-5-hydroxy-1H-pyrazol-1-yl)-N-(2-methoxyethyl)nicotinamide] are 2040 nM and 7.6.
As to `N#Cc1ccc(-c2cnn(-c3ccc(C(=O)NCC4CCCO4)cn3)c2O)cc1` (centres unmarked) [Example 153, 6-(4-(4-cyanophenyl)-5-hydroxy-1H-pyrazol-1-yl)-N-((tetrahydrofuran-2-yl)methyl)nicotinamide], the EC50 in test [1] was 1380 nM. Besides, the “PHD Inhibition (pIC50)” value in test [2] stood at 7.57.
Taken in the same sequence, the figures for `N#Cc1ccc(-c2cnn(-c3ccc(C(=O)N[C@@H]4CCOC4)cn3)c2O)cc1` [Example 154, (R)-6-(4-(4-cyanophenyl)-5-hydroxy-1H-pyrazol-1-yl)-N-(tetrahydrofuran-3-yl)nicotinamide] were 1480 nM and 7.68.
`N#Cc1ccc(-c2cnn(-c3ccc(C(=O)NC4CCCOC4)cn3)c2O)cc1` (centres unmarked) [Example 155, 6-(4-(4-cyanophenyl)-5-hydroxy-1H-pyrazol-1-yl)-N-(tetrahydro-2H-pyran-3-yl)nicotinamide]: the EC50 in test [1] was 1550 nM. In test [2], the “PHD Inhibition (pIC50)” value amounted to 7.62.
For `COCC(NC(=O)c1ccc(-n2ncc(-c3ccc(C#N)cc3)c2O)nc1)C(C)C` (centres unmarked) [Example 156, 6-(4-(4-cyanophenyl)-5-hydroxy-1H-pyrazol-1-yl)-N-(1-methoxy-3-methylbutan-2-yl)nicotinamide], in test [1], the EC50 is 891 nM. The “PHD Inhibition (pIC50)” value in test [2] amounted to 7.47.
Taken in the same sequence, the figures for `N#Cc1cnn(-c2cnn(-c3ccc(C(=O)NCc4ccccc4)cn3)c2O)c1` [Example 157, N-benzyl-6-(4-cyano-5′-hydroxy-1′H-[1,4′-bipyrazol]-1′-yl)nicotinamide] were 1700 nM and 6.97.
The corresponding values for `N#Cc1cnn(-c2cnn(-c3ccc(C(=O)NCC4CCOCC4)cn3)c2O)c1` [Example 158, 6-(4-cyano-5′-hydroxy-1′H-[1,4′-bipyrazol]-1′-yl)-N-((tetrahydro-2H-pyran-4-yl)methyl)nicotinamide] are 9550 nM and 6.71.
Taken in the same sequence, the figures for `CC(C)NC(=O)c1ccc(-n2ncc(-c3ccc(C#N)cc3)c2O)nc1` [Example 159, 6-(4-(4-cyanophenyl)-5-hydroxy-1H-pyrazol-1-yl)-N-isopropylnicotinamide] were 912 nM and 7.15.
